From ChEMBL document CHEMBL5715942, “A novel histone deacetylase 8 (HDAC8)-specific inhibitor PCI-34051 induces apoptosis in T-cell lymphomas” (Leukemia, 2008)
Calls of active or inactive are those of the source. The rule behind the calls is not given here.

Columns and labels:
J.gamma1 [1] = assay: Induction of apoptosis in human J.gamma1 cells assessed as increased intracellular calcium level at 1 uM in presence of Iodo-1 and Ionomycin by spectrofluorimetric analysis; format: functional, cell-based
J.gamma1 [2] = assay: Induction of apoptosis in human J.gamma1 cells assessed as increased intracellular calcium level at 1 uM in presence of Iodo-1 by spectrofluorimetric analysis; format: functional, cell-based
Jurkat [3] = assay: Induction of apoptosis in human Jurkat cells assessed as increase in intracellular calcium level at 0.25 to 1 uM in presence of Iodo-1 and Ionomycin by spectrofluorimetric analysis; format: functional, cell-based; settings: dose 0.25-1 µM
Jurkat [4] = assay: Induction of apoptosis in human Jurkat cells assessed as increase in intracellular calcium level in presence of Iodo-1 by spectrofluorimetric analysis; format: functional, cell-based; settings: dose 0.25-1 µM
J.gamma1 [5] = assay: Induction of apoptosis in human J.gamma1 cells at 0.2 uM incubated for 24 hrs by Annexin-V staining based flow cytometry analysis relative to control; format: functional
Jurkat [6] = assay: Induction of apoptosis in human Jurkat cells assessed as increased intracellular calcium level in presence of Iodo-1 and U73122 by spectrofluorimetric analysis; format: functional, cell-based
J.gamma1 [7] = assay: Induction of apoptosis in human J.gamma1 cells assessed as increased intracellular calcium level in presence of Iodo-1 and U73122 by spectrofluorimetric analysis; format: functional, cell-based

Question: For C/C=C(/C)C(=O)O[C@H]1C(C)=C2[C@H]([C@@H]1OC(=O)CCCCCCC)[C@@](C)(OC(C)=O)C[C@H](OC(=O)CCC)[C@@]1(O)[C@H]2OC(=O)[C@@]1(C)O [THAPSIGARGIN], which Activity (J.gamma1 [1]) is on record?
Answer: The Activity was “Active”.

Question: And the Activity (J.gamma1 [2])?
Answer: Its Activity is “Active”.

Question: And the Activity (Jurkat [3])?
Answer: Its Activity is “Active”.

Question: What about the Activity (Jurkat [4]) of the same molecule?
Answer: Its Activity is “Dose-Dependent Effect”.

Question: And the Activity (J.gamma1 [5])?
Answer: Its Activity is 12%.

Question: And the Activity (Jurkat [6])?
Answer: The Activity was “Active”.

Question: What about the Activity (J.gamma1 [7]) of the same molecule?
Answer: The Activity was “Active”.
